Reference: US7271165B2, “Rifamycin analogs and uses thereof” (priority 2003, dated 2007)
In brackets after ≈: the same amount, converted by molar mass.

Tests used:
S. pneumo. = assay: MIC assay, S. pneumo.; assay type: cell-based, Streptococcus pneumoniae
S. aureus = assay: MIC assay, S. aureus; assay type: cell-based, Staphylococcus aureus
H. flu = assay type: cell-based, H. influenza; conditions: H. flu
E coli = assay: MIC assay, E coli; assay type: cell-based
E. faecalis = assay: MIC assay, E. faecalis; assay type: cell-based, Enterococcus faecalis

Structure (SMILES)	MIC (μg/mL) S. pneumo. (S. pneumo.) [µg/mL]	MIC (μg/mL) S. aureus (S. aureus) [µg/mL]	MIC (μg/mL) H. flu (H. flu) [µg/mL]	MIC (μg/mL) E coli (E coli) [µg/mL]	MIC (μg/mL) E. faecalis (E. faecalis) [µg/mL]
COC1C=COC2(C)Oc3c(C)c(O)c4c(=O)c(c5oc6cc(N7CCC(c8ccccc8)CC7)cc(O)c6nc-5c4c3C2=O)NC(=O)C(C)=CC=CC(C)C(O)C(C)C(O)C(C)C(OC(C)=O)C1C (centres unmarked) [Compound 57, 3′-hydroxy-5′-[4-phenyl-1-piperidinyl]benzoxazinorifamycin]	0.0005 (≈ 0.000521 µM)	0.008 (≈ 0.00833 µM)	0.5 (≈ 0.521 µM)	8 (≈ 8.33 µM)	2 (≈ 2.08 µM)
COC1C=COC2(C)Oc3c(C)c(O)c4c(=O)c(c5oc6cc(N7CC8CCCN(C)C8C7)cc(O)c6nc-5c4c3C2=O)NC(=O)C(C)=CC=CC(C)C(O)C(C)C(O)C(C)C(OC(C)=O)C1C [Compound 58, 3′-hydroxy-5′-[1-methyl-(4aS,7aS)-octahydro-6H-pyrrolo[3,4-b]pyridin-6-yl]benzoxazinorifamycin]	0.004 (≈ 0.00426 µM)	0.03 (≈ 0.0319 µM)	0.25 (≈ 0.266 µM)	>8	1 (≈ 1.06 µM)
COC1C=COC2(C)Oc3c(C)c(O)c4c(=O)c(c5oc6cc(N7CC8CCCN(C)C8C7)cc(O)c6nc-5c4c3C2=O)NC(=O)C(C)=CC=CC(C)C(O)C(C)C(O)C(C)C(O)C1C [Compound 59, 25-O-deacetyl-3′-hydroxy-5′-[1-methyl-(4aS,7aS)-octahydro-6H-pyrrolo[3,4-b]pyridin-6-yl]benzoxazinorifamycin]	0.001 (≈ 0.00111 µM)	0.004 (≈ 0.00446 µM)	0.12 (≈ 0.134 µM)	4 (≈ 4.46 µM)	0.06 (≈ 0.0669 µM)
CCOC(=O)NCC1CCN(c2cc(O)c3nc4c5c6c7c(C)c(O)c5c(=O)c(c-4oc3c2)NC(=O)C(C)=CC=CC(C)C(O)C(C)C(O)C(C)C(O)C(C)C(OC)C=COC(C)(O7)C6=O)CC1 (centres unmarked) [Compound 60, 25-O-deacetyl-3′-hydroxy-5′-[4-ethylcarbamylmethyl-1-piperidinyl]benzoxazinorifamycin]	0.0005 (≈ 0.00053 µM)	0.008 (≈ 0.00848 µM)	0.06 (≈ 0.0636 µM)	>8	0.5 (≈ 0.53 µM)
COC1C=COC2(C)Oc3c(C)c(O)c4c(=O)c(c5oc6cc(N7CCC(CCO)CC7)cc(O)c6nc-5c4c3C2=O)NC(=O)C(C)=CC=CC(C)C(O)C(C)C(O)C(C)C(OC(C)=O)C1C (centres unmarked) [Compound 61, 3′-hydroxy-5′-[4-(2-hydroxyethyl)-1-piperidinyl]benzoxazinorifamycin]	0.00012 (≈ 0.000129 µM)	0.004 (≈ 0.00431 µM)	0.25 (≈ 0.269 µM)	>8	1 (≈ 1.08 µM)
COC1C=COC2(C)Oc3c(C)c(O)c4c(=O)c(c5oc6cc(N7CCC(c8ccccc8)CC7)cc(O)c6nc-5c4c3C2=O)NC(=O)C(C)=CC=CC(C)C(O)C(C)C(O)C(C)C(O)C1C (centres unmarked) [Compound 62, 25-O-deacetyl-3′-hydroxy-5′-[4-phenyl-1-piperidinyl]benzoxazinorifamycin]	0.008 (≈ 0.00871 µM)	0.015 (≈ 0.0163 µM)	0.5 (≈ 0.545 µM)	>8	8 (≈ 8.71 µM)
COCCOC(=O)NC1CCN(c2cc(O)c3nc4c5c6c7c(C)c(O)c5c(=O)c(c-4oc3c2)NC(=O)C(C)=CC=CC(C)C(O)C(C)C(O)C(C)C(O)C(C)C(OC)C=COC(C)(O7)C6=O)CC1 (centres unmarked) [Compound 63, 25-O-deacetyl-3′-hydroxy-5′-[4-methoxyethylcarbamyl-1-piperidinyl]benzoxazinorifamycin]	0.002 (≈ 0.00209 µM)	0.008 (≈ 0.00834 µM)	0.25 (≈ 0.261 µM)	8 (≈ 8.34 µM)	1 (≈ 1.04 µM)
